Experimental data from patent publication US20040141914A1, “Cancerous disease modifying antibodies” (priority 2003, published 2004).

Columns and labels:
[1] = Live/Dead cytotoxicity assay, hybridoma supernatant; settings: human
MCF-7 = test system: MCF-7; design: key to the marks not given beside the values
PC-3 = test system: PC-3; design: key to the marks not given beside the values
MB-468 = test system: MB-468; design: key to the marks not given beside the values
MB-231 = test system: MB-231; design: key to the marks not given beside the values
HT-29 = test system: HT-29; design: key to the marks not given beside the values
OVCAR = test system: OVCAR; design: key to the marks not given beside the values
NCI H460 = test system: NCI H460; design: key to the marks not given beside the values

C[C@@H]1C[C@@H]([C@H](O)CC2CC(=O)NC(=O)C2)C(=O)[C@@H](C)C1 [Cycloheximide]
17%: cytotoxicity at 5 days [1]
+++: cytotoxicity, experiments greater than threshold, MCF-7 (MCF-7) | cytotoxicity, experiments greater than threshold, PC-3 (PC-3) | cytotoxicity, experiments greater than threshold, MB-468 (MB-468) | cytotoxicity, experiments greater than threshold, MB-231 (MB-231) | cytotoxicity, experiments greater than threshold, HT-29 (HT-29) | cytotoxicity, experiments greater than threshold, OVCAR (OVCAR) | cytotoxicity, experiments greater than threshold, NCI H460 (NCI H460)
